Source: US20210347709A1, “RADIOFLUORINATED GPC3-BINDING PEPTIDES FOR PET IMAGING OF HEPATOCELLULAR CARCINOMA” (University of Southern California, priority 2020, published 2021)
Where two headings read alike, the source gives them in different places.

Experiments:
[1] = Measurement of lipophilicity (Log P), 1-octanol/PBS partition; type: physicochemical; conditions: 1-octanol / PBS pH 7.4, mean ± SD, n = 4
Method: Measurement of Lipophilicity (Log P). Approximately 185 kBq of Al[^18F]F-GP2076 or Al[^18F]F-GP2633 in 0.5 ml of phosphate-buffered saline (PBS) (pH 7.4) was mixed with 0.5 ml of 1-octanol. The mixture was vigorously shaken for 1 min, and then centrifuged at 12,000 rpm for 5 min to partition the organic and aqueous layers. Aliquots of 0.2 ml each layer were taken and the radioactivity was determined by gamma counting (GC-1200, USTC Chuangxin Co. Ltd. Zonkia Branch, China). The distribution coefficient P was calculated as the ratio of radioactivity in the organic phase to that in the aqueous phase. The experiment was carried out in quadruplicate.

[2] = In vivo metabolic stability in HepG2 tumor-bearing mice; conditions: 1 h after intravenous injection
Method: In Vivo Metabolic Stability. HepG2 tumor-bearing mice (n=3/group) were intravenously injected with 5.55 MBq of Al[^18F]F-GP2076 or Al[^18F]F-GP2633. At 1 h after the injection, the mice were euthanized, and the HepG2 tumor, blood, liver, kidneys, and urine samples were collected. Briefly, the blood sample was immediately centrifuged for 5 min at 12,000 rpm. The HepG2 tumor, liver, and kidneys were homogenized and then centrifuged for 5 min at 12,000 rpm. The supernatant from each sample was passed through an ultrafiltration tube (Millipore, USA) and then centrifuged for 10 min at 12,000 rpm. The urine sample was diluted with 100 μl of PBS. The filtrate from each sample was injected into analytic HPLC. The HPLC eluents were collected with a fraction collector (one fraction/30 sec), and the radioactivity of each fraction was measured by gamma counting.

[3] = tested on: GPC3-positive HepG2 tumor; assay: MicroPET/CT imaging and biodistribution, HepG2 tumor model; type: in vivo, nude mice; conditions: for Tumor-to-kidneys (T/K) uptake ratio / Tumor-to-liver (T/L) uptake ratio / Tumor-to-muscle (T/M) uptake ratio: HepG2 (GPC3+) tumor bearing mice; for Kidneys uptake / Liver uptake / Tumor uptake: HepG2 (GPC3+) tumor model; for Kidneys uptake / Liver uptake / Tumor uptake / defluorination in vivo (from low bone uptake): PET; for Tumor uptake: decay-corrected; for clearance / excretion route from the mouse body: as visualized by PET images
Method: MicroPET/CT Imaging and Biodistribution. MicroPET/CT scans were carried out using a Siemens Inveon PET/CT scanner (Siemens, Germany). Tumor-bearing mice (n=3/group) were intravenously injected with 5.55 MBq of Al[^18F]F-GP2076 or Al[^18F]F-GP2633 under isoflurane anesthesia. A ten-minute static PET scan for each animal was acquired at 30, 60, and 120 min after the injection. 3-Dimensional ordered subset expectation maximization (3D-OSEM) algorithm was used for the PET reconstruction, and CT was applied for attenuation correction. Detailed procedures for the microPET/CT imaging and biodistribution are provided in ESM.
(§1) All animal experiments were conducted according to the guideline of the Nanfang Hospital Animal Ethics Committee at the Southern Medical University. Male or female BALB/c nude mice (about 4-6 weeks old) were obtained from the Laboratory Animal Center at Southern Medical University. The HepG2 and McA-RH7777 HCC xenografts were established by subcutaneous injection of 1×10^6 tumor cells into the left shoulder of nude mice. The animals were used for in vivo studies when the tumors reached a size of 0.5-1 cm in diameter (4-6 weeks after inoculation).
Inveon Research Workplace (IRW) 3.0 software (Siemens, Germany) was used to measure the regions of interest (ROIs) determined by superimposing the ellipsoid volume of interest (VOI) on the target tissues. The radioactivity concentrations were measured by the mean pixel intensity within each VOI and converted to dose/ml using a calibration constant. Assuming the tissue density of 1 g/ml, the ROI was then converted to dose per gram and normalized as the percent injected dose per gram (% ID/g). Tumor-to-nontarget uptake ratios, including tumor-to-muscle (T/M), tumor-to-liver (T/L), and tumor-to-kidneys (T/K) ratios, were calculated by dividing the radioactivity uptake in tumor by that in the corresponding normal tissue or organ.

[4] = Ex vivo biodistribution in HepG2 tumor bearing nude mice; conditions: both sexes, BALB/c nude, mouse, iv, 1.85 MBq, total radioactivity, 1 h post-injection, gamma counting
Method: as §1
(§2) Ex vivo biodistribution was evaluated at 60 min after the tail vein injection of 1.85 MBq of Al[^18F]F-GP2076 or Al[^18F]F-GP2633. Mice were euthanized and dissected. Major tissues and organs were collected and weighed wet. The radioactivity in the tissues and organs was measured using a gamma counter. The results were presented as % ID/g. For each animal, the radioactivity of the tissue and organ samples was calibrated with a known aliquot of the injected activity. Mean uptake (% ID/g) for a group of animals was calculated with standard deviations.

[5] = tested on: HepG2 tumor; assay: as above; conditions: 1 h post-injection, gamma counting
Method: as §1, §2

[6] = HepG2 tumor, read-out: HepG2 Tumor uptake, ex vivo biodistribution
[7] = blood, read-out: Blood uptake, ex vivo biodistribution
[8] = bone, read-out: Bone uptake, ex vivo biodistribution
[9] = brain, read-out: Brain uptake, ex vivo biodistribution
[10] = heart, read-out: Heart uptake, ex vivo biodistribution
[11] = kidneys, read-out: Kidneys uptake, ex vivo biodistribution
[12] = liver, read-out: Liver uptake, ex vivo biodistribution
[13] = muscle, read-out: Muscle uptake, ex vivo biodistribution

| logP [1] | percentage of parent F-18 labeled peptide in HepG2 tumor [2] | percentage of parent F-18 labeled peptide in blood [2] | percentage of parent F-18 labeled peptide in kidneys [2] | percentage of parent F-18 labeled peptide in liver [2] | percentage of parent F-18 labeled peptide in urine [2] | Tumor-to-liver (T/L) uptake ratio ([3]; 30 min) | Tumor-to-muscle (T/M) uptake ratio ([3]; 30 min) | Tumor-to-kidneys (T/K) uptake ratio ([3]; 60 min) | Tumor-to-liver (T/L) uptake ratio ([3]; 60 min) | Tumor-to-muscle (T/M) uptake ratio ([3]; 60 min) | Tumor-to-liver (T/L) uptake ratio ([3]; 120 min) | Tumor-to-muscle (T/M) uptake ratio ([3]; 120 min) | Kidneys uptake ([3]; 30 min) | Liver uptake ([3]; 30 min) | Tumor uptake ([3]; 30 min) | Kidneys uptake ([3]; 60 min) | Liver uptake ([3]; 60 min) | Tumor uptake ([3]; 60 min) | Kidneys uptake ([3]; 120 min) | SMILES | also measured |
| --- | --- | --- | --- | --- | --- | --- | --- | --- | --- | --- | --- | --- | --- | --- | --- | --- | --- | --- | --- | --- | --- |
| -2.42 ± 0.09 | 93.01±2.98% | 93.57±1.38% | 7.70±2.56% | 92.95±2.77% | No parent | 1.77 ±0.20 | 9.11±0.79 | 0.09±0.01 | 2.00±0.18 | 12.17±0.62 | 1.28±0.25 | 6.20±1.80 | 39.40±0.98 % ID/g | 1.80±0.36 % ID/g | 3.13±0.31 % ID/g | 36.86±2.05 % ID/g | 1.70±0.26 % ID/g | 3.37±0.35 % ID/g | 29.27 ± 3.31 % ID/g | CC(C)C[C@H](NC(=O)[C@H](CCCNC(=N)N)NC(=O)[C@H](CC(N)=O)NC(=O)[C@H](CC(=O)O)NC(=O)[C@H](CCCNC(=N)N)NC(=O)CNC(=O)CNC(=O)CNC(=S)Nc1ccc(CC2CN(CC(=O)O)CCN(CC(=O)O)CCN2CC(=O)O)cc1)C(=O)N[C@@H](CC(N)=O)C(=O)N[C@H](C(=O)NCC(=O)NCC(=O)N[C@H](C(=O)N[C@@H](Cc1ccc(O)cc1)C(=O)N[C@@H](Cc1ccccc1)C(=O)N[C@@H](CC(C)C)C(=O)N[C@H](C(=O)N[C@H](C(=O)N[C@@H](CCCNC(=N)N)C(=O)N[C@@H](CCC(N)=O)C(=O)O)[C@@H](C)O)[C@@H](C)O)[C@@H](C)O)C(C)C (single isomer, unassigned) [Al[^18F]F-GP2633] | Tumor-to-kidneys (T/K) uptake ratio ([3]; 30 min): 0.08 ± 0.01; Tumor-to-kidneys (T/K) uptake ratio ([3]; 120 min): 0.04 ± 0.01; Liver uptake ([3]; 120 min): 1.04 ± 0.20 % ID/g; Tumor uptake ([3]; 120 min): 1.30±0.17 % ID/g; defluorination in vivo (from low bone uptake) [3]: did not occur; clearance / excretion route from the mouse body [3]: predominantly through the renal system; tissue uptake at 1 h [4, 6]: 1.96 ± 0.29 %ID/g; tissue uptake at 1 h [4, 7]: 0.45 ± 0.12 %ID/g; tissue uptake at 1 h [4, 8]: 0.36 ± 0.08 %ID/g; tissue uptake at 1 h [4, 9]: 0.12 ± 0.12 %ID/g; tissue uptake at 1 h [4, 10]: 0.39 ± 0.27 %ID/g; tissue uptake at 1 h [4, 11]: 37 ± 4.7 %ID/g; tissue uptake at 1 h [4, 12]: 0.97 ± 0.07 %ID/g; tissue uptake at 1 h [4, 13]: 0.31 ± 0.05 %ID/g; HepG2 Tumor uptake, ex vivo biodistribution [5]: 1.96±0.29 % ID/g; Liver uptake, ex vivo biodistribution [5]: 0.97±0.07 % ID/g |
| -2.1 ± 0.07 | 97.69±2.51% | 96.68±1.55% | 54.94±2.12% | 96.06±0.54% | 3.31±0.20% | 0.43±0.06 | 5.56±1.36 | 0.31±0.04 | 0.59±0.14 | 5.13±2.08 | 0.46±0.40 | 2.68±0.29 | 9.83±3.69 % ID/g | 5.10±0.53 % ID/g | 2.20±0.36 % ID/g | 7.03±2.32 % ID/g | 3.70±0.98 % ID/g | 2.13±0.55 % ID/g | 2.27 ± 1.07 % ID/g | CC(C)C[C@H](NC(=O)[C@H](CCCNC(=N)N)NC(=S)Nc1ccc(CC2CN(CC(=O)O)CCN(CC(=O)O)CCN2CC(=O)O)cc1)C(=O)N[C@@H](CC(N)=O)C(=O)N[C@H](C(=O)NCC(=O)NCC(=O)N[C@H](C(=O)N[C@@H](Cc1ccc(O)cc1)C(=O)N[C@@H](Cc1ccccc1)C(=O)N[C@@H](CC(C)C)C(=O)N[C@H](C(=O)N[C@H](C(=O)N[C@@H](CCCNC(=N)N)C(=O)N[C@@H](CCC(N)=O)C(=O)O)[C@@H](C)O)[C@@H](C)O)[C@@H](C)O)C(C)C (single isomer, unassigned) [Al[^18F]F-GP2076] | Liver uptake ([3]; 120 min): 2.07 ± 0.96 % ID/g; Tumor uptake ([3]; 120 min): 0.73±0.32 % ID/g; defluorination in vivo (from low bone uptake) [3]: did not occur; clearance / excretion route from the mouse body [3]: primarily through the hepatic pathway; tissue uptake at 1 h [4, 6]: 1.13 ± 0.02 %ID/g; tissue uptake at 1 h [4, 7]: 0.36 ± 0.17 %ID/g; tissue uptake at 1 h [4, 8]: 0.29 ± 0.13 %ID/g; tissue uptake at 1 h [4, 9]: 0.1 ± 0.1 %ID/g; tissue uptake at 1 h [4, 10]: 0.36 ± 0.15 %ID/g; tissue uptake at 1 h [4, 11]: 6.37 ± 1.45 %ID/g; tissue uptake at 1 h [4, 12]: 2.3 ± 0.56 %ID/g; tissue uptake at 1 h [4, 13]: 0.24 ± 0.07 %ID/g; HepG2 Tumor uptake, ex vivo biodistribution [5]: 1.13±0.02 % ID/g; Liver uptake, ex vivo biodistribution [5]: 2.30±0.56 % ID/g |
